Our source for the IC50 values is patent US8299056B2 (Signal Pharmaceuticals, LLC, priority 2008, dated 2012).

The target in this experiment is T1, Syk (Homo sapiens, UniProt P43405).
T1 construct: purchased Carna Biosciences
As to the kind of experiment: Syk HTRF assay. The experiment is classed as biochemical. The procedure, abridged:
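HTRF kinase assay in HEPES pH 7.6 buffer with MgCl2, DTT and Triton X100; start mix of 87.5 μM ATP and 80 nM biotinylated peptide, 1 h at room temperature. EDTA stop, then Eu-anti-phosphotyrosine/streptavidin-DyLight 647 detection, read as 665/615 nm emission ratio.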

The mark [1] stands for this setting: read-out: Activity Level (Syk HTRF assay IC50).
Setting [2] is: activity levels A-D, read-out: Activity Level (IC50 in the Syk HTRF assay).
The mark [3] stands for this setting: IC50 activity level, read-out: Activity Level.

The structures appear in SMILES notation. Where two headings read alike, the source gives them in different places.

Consider `NCCN1Cc2cc(Nc3nc4cccc(-c5ccccc5)n4n3)ccc2C1=O` [compound 45, 2-(2-aminoethyl)-5-(5-phenyl-[1,2,4]triazolo[1,5-a]pyridin-2-ylamino)isoindolin-1-one], for which the IC50 under setting [1] is 250 to 500 nM.

With `FC(F)(F)c1ccc(Nc2nc3cccc(O[C@H]4CCCNC4)n3n2)cc1` [Example 362, (S)-5-(piperidin-3-yloxy)-N-(4-(trifluoromethyl)phenyl)-[1,2,4]triazolo[1,5-a]pyridin-2-amine], the IC50 under setting [2] is 1000 to 10000 nM.

Take `CNC(=O)c1ccc(Nc2nc3cccc(-c4ccc5nn[nH]c5c4)n3n2)cc1` [Example 432, 4-(5-(1H-benzo[d][1,2,3]triazol-6-yl)-[1,2,4]triazolo[1,5-a]pyridin-2-ylamino)-N-methylbenzamide]: under setting [3], the IC50 was 0.005 to 250 nM.

On to `CNC(=O)c1ccc(Nc2nc3cccc(-c4cc(Cl)cc(-c5ccccc5C(N)=O)c4)n3n2)cc1` [compound 5, 3′-chloro-5′-(2-(4-(methylcarbamoyl)phenylamino)-[1,2,4]triazolo[1,5-a]pyridin-5-yl)biphenyl-2-carboxamide], for which, under setting [1], the IC50 lay within 0.005 to 250 nM.

Regarding `NC(=O)c1ccc(Cc2cccc3nc(Nc4ccccc4)nn23)cc1` [Example 452, 4-((2-(phenylamino)-[1,2,4]triazolo[1,5-a]pyridin-5-yl)methyl)benzamide], under setting [3], the IC50 fell in the range of 1000 to 10000 nM.

Turning to `NCCOc1cccc2nc(Nc3ccc(C(F)(F)F)cc3)nn12` [Example 296, 5-(2-aminoethoxy)-N-(4-(trifluoromethyl)phenyl)-[1,2,4]triazolo[1,5-a]pyridin-2-amine], the IC50 under setting [2] fell in the range of 500 to 1000 nM.

As for `O=C1NCCc2cc(Nc3nc4cccc(N[C@H]5CC[C@@H](O)CC5)n4n3)ccc21` [Example 203, cis-6-(5-(4-hydroxycyclohexylamino)-[1,2,4]triazolo[1,5-a]pyridin-2-ylamino)-3,4-dihydroisoquinolin-1(2H)-one], the IC50 under setting [2] fell in the range of 0.005 to 250 nM.

As to `CNC(=O)c1ccc(Nc2nc3cccc(-c4cccc(C(N)=O)c4)n3n2)cc1` [compound 18, 4-(5-(3-carbamoylphenyl)-[1,2,4]triazolo[1,5-a]pyridin-2-ylamino)-N-methylbenzamide], the IC50 under setting [1] was 500 to 1000 nM.

On to `O=C1CN(Cc2cccc3nc(Nc4ccc(C(F)(F)F)cc4)nn23)CN1` [Example 301, 1-((2-(4-(trifluoromethyl)phenylamino)-[1,2,4]triazolo[1,5-a]pyridin-5-yl)methyl)imidazolidin-4-one], for which, under setting [2], the IC50 is 1000 to 10000 nM.

On to `O=C1NCc2ccc(Nc3nc4cccc(N[C@H]5CC[C@@H](O)CC5)n4n3)cc21` [Example 260, cis-6-(5-(4-hydroxycyclohexylamino)-[1,2,4]triazolo[1,5-a]pyridin-2-ylamino)isoindolin-2-one], for which the IC50 under setting [2] fell in the range of 500 to 1000 nM.

Turning to `O[C@H]1CC[C@@H](Nc2cccc3nc(Nc4ccc(F)cc4)nn23)CC1` [Example 319, cis-4-(2-(4-fluorophenylamino)-[1,2,4]triazolo[1,5-a]pyridin-5-ylamino)cyclohexanol], the IC50 under setting [2] was in the range of 0.005 to 250 nM.

Take `OC1CCCC[C@H]1Nc1cccc2nc(Nc3ccc(C(F)(F)F)cc3)nn12` (stereo in doubt) [Example 270, (1S,2R)-2-(2-(4-(trifluoromethyl)phenylamino)-[1,2,4]triazolo[1,5-a]pyridin-5-ylamino)cyclohexanol]: under setting [2], the IC50 lay within 1000 to 10000 nM.

As for `NC(=O)c1ccc(Nc2nc3cccc(NC4CCNCC4)n3n2)cc1` [Example 516, 4-(5-(piperidin-4-ylamino)-[1,2,4]triazolo[1,5-a]pyridin-2-ylamino)benzamide], the IC50 under setting [3] was in the range of 1000 to 10000 nM.

With `O=C1CN(Cc2cccc3nc(Nc4ccc(N5CCC(O)CC5)nc4)nn23)CCN1` [Example 221, 4-((2-(6-(4-hydroxypiperidin-1-yl)pyridin-3-ylamino)-[1,2,4]triazolo[1,5-a]pyridin-5-yl)methyl)piperazin-2-one], under setting [2], the IC50 was 500 to 1000 nM.

In the case of `NC(=O)CNCc1cccc2nc(Nc3ccc(C(F)(F)F)cc3)nn12` [Example 290, 2-((2-(4-(trifluoromethyl)phenylamino)-[1,2,4]triazolo[1,5-a]pyridin-5-yl)methylamino)acetamide], under setting [2], the IC50 is 0.005 to 250 nM.

For the compound `c1cncc(Nc2nc3cccc(NC4CCCNC4)n3n2)c1` (stereo in doubt) [Example 433, (S)-N^5-(piperidin-3-yl)-N^2-(pyridin-3-yl)-[1,2,4]triazolo[1,5-a]pyridin-2,5-diamine], the IC50 under setting [3] was 0.005 to 250 nM.

With `CCc1n[nH]c2cc(Nc3nc4cccc(N[C@H]5CC[C@@H](O)CC5)n4n3)ccc12` [Example 245, cis-4-(2-(3-ethyl-1H-indazol-6-ylamino)-[1,2,4]triazolo[1,5-a]pyridin-5-ylamino)cyclohexanol], the IC50 under setting [2] is 0.005 to 250 nM.

As for `CN1Cc2cc(Nc3nc4cccc(CC5CCOCC5)n4n3)ccc2C1=O` [Example 145, 2-methyl-5-(5-((tetrahydro-2H-pyran-4-yl)methyl)-[1,2,4]triazolo[1,5-a]pyridin-2-ylamino)isoinoldin-1-one], the IC50 under setting [1] was 500 to 1000 nM.

Turning to `c1cc(NC2CCCNC2)n2nc(Nc3ccc4c(c3)CNC4)nc2c1` (stereo in doubt) [Example 448, (R)-N^2-(isoindolin-5-yl)-N^5-(piperidin-3-yl)-[1,2,4]triazolo[1,5-a]pyridin-2,5-diamine], under setting [3], the IC50 was 1000 to 10000 nM.

`FC(F)(F)c1ccc(Nc2nc3cccc(N[C@@H]4CCCNC4)n3n2)cc1` [Example 468, (R)-N^5-(piperidin-3-yl)-N^2-(4-(trifluoromethyl)phenyl)-[1,2,4]triazolo[1,5-a]pyridin-2,5-diamine]: the IC50 under setting [3] fell in the range of 500 to 1000 nM.

Regarding `c1ccc(Nc2nc3cccc(NC4CCOCC4)n3n2)cc1` [Example 438, N^2-phenyl-N^5-(tetrahydro-2H-pyran-4-yl)-[1,2,4]triazolo[1,5-a]pyridine-2,5-diamine], the IC50 under setting [3] lay in the range of 1000 to 10000 nM.

For the compound `O[C@H]1CC[C@@H](Nc2cccc3nc(Nc4ccn5ccnc5c4)nn23)CC1` [compound 112, cis-4-(2-(imidazo[1,2-a]pyridin-7-ylamino)-[1,2,4]triazolo[1,5-a]pyridin-5-ylamino)cyclohexanol], the IC50 under setting [1] was in the range of 1000 to 10000 nM.

As for `O[C@@H]1CCC[C@@H](Nc2cccc3nc(Nc4ccc(C(F)(F)F)cc4)nn23)C1` (single isomer, unassigned; enantiomer 2) [Example 224, cis-3-(2-(4-(trifluoromethyl)phenylamino)-[1,2,4]triazolo[1,5-a]pyridin-5-ylamino)cyclohexanol (enantiomer 2)], the IC50 under setting [2] was in the range of 1000 to 10000 nM.

Consider `O=C1NCc2cc(Nc3nc4cccc(N[C@H]5CC[C@@H](O)CC5)n4n3)ccc21` [Example 253, cis-5-(5-(4-hydroxycyclohexylamino)-[1,2,4]triazolo[1,5-a]pyridin-2-ylamino)isoindolin-1-one], for which, under setting [2], the IC50 was in the range of 0.005 to 250 nM.

Consider `NCCN1Cc2cc(-c3cccc4nc(Nc5ccccc5)nn34)ccc2C1=O` [Example 494, 2-(2-aminoethyl)-5-(2-(phenylamino)-[1,2,4]triazolo[1,5-a]pyridin-5-yl)isoindolin-1-one], for which, under setting [3], the IC50 is 500 to 1000 nM.

For `FC(F)(F)c1ccc(Nc2nc3cccc(N[C@H]4CCCNC4)n3n2)cc1` [Example 469, (S)-N^5-(piperidin-3-yl)-N^2-(4-(trifluoromethyl)phenyl)-[1,2,4]triazolo[1,5-a]pyridin-2,5-diamine], under setting [3], the IC50 lay within 0.005 to 250 nM.

Turning to `CNC(=O)c1cccc(Nc2nc3cccc(N[C@H]4CC[C@@H](O)CC4)n3n2)c1` [Example 316, cis-3-(5-(4-hydroxycyclohexylamino)-[1,2,4]triazolo[1,5-a]pyridin-2-ylamino)-N-methylbenzamide], the IC50 under setting [2] fell in the range of 250 to 500 nM.

With `O[C@H]1CC[C@@H](Nc2cccc3nc(Nc4ccc(N5CCOCC5)nc4)nn23)CC1` [Example 313, cis-4-(2-(6-morpholinopyridin-3-ylamino)-[1,2,4]triazolo[1,5-a]pyridin-5-ylamino)cyclohexanol], the IC50 under setting [2] lay in the range of 0.005 to 250 nM.

With `CN1C(=O)Cc2ccc(Nc3nc4cccc(N[C@H]5CC[C@@H](O)CC5)n4n3)cc21` [Example 192, cis-6-(5-(4-hydroxycyclohexylamino)-[1,2,4]triazolo[1,5-a]pyridin-2-ylamino)-1-methylindolin-2-one], under setting [1], the IC50 is 0.005 to 250 nM.

On to `O[C@H]1CC[C@@H](Nc2cccc3nc(Nc4ccnc(OCCN5CCCC5)c4)nn23)CC1` [Example 293, cis-4-(2-(2-(2-(pyrrolidiun-1-yl)ethoxy)pyridin-4-ylamino)-[1,2,4]triazolo[1,5-a]pyridin-5-ylamino)cyclohexanol], for which, under setting [2], the IC50 lay in the range of 500 to 1000 nM.

For the compound `Cn1cnc2cc(Nc3nc4cccc(-c5ccccc5)n4n3)ccc21` [compound 55, N-(1-methyl-1H-benzo[d]imidazol-5-yl)-5-phenyl-[1,2,4]triazolo[1,5-a]pyridin-2-amine], under setting [1], the IC50 lay in the range of 250 to 500 nM.

For the compound `Cc1cccc(Nc2nc3cccc(N[C@H]4CC[C@@H](O)CC4)n3n2)c1` [Example 350, cis-4-(2-(m-tolylamino)-[1,2,4]triazolo[1,5-a]pyridin-5-ylamino)cyclohexanol], the IC50 under setting [2] was in the range of 0.005 to 250 nM.

For the compound `CN1C(=O)C(C)(C)c2ccc(Nc3nc4cccc(N[C@H]5CC[C@H](O)CC5)n4n3)cc21` (stereo in doubt) [Example 146, trans-6-(5-(4-hydroxycyclohexylamino)-[1,2,4]triazolo[1,5-a]pyridin-2-ylamino)-1,3,3-trimethylindolin-2-one], the IC50 under setting [1] was 0.005 to 250 nM.

Turning to `NCCCc1cccc2nc(Nc3ccccc3)nn12` [Example 498, 5-(3-aminopropyl)-N-phenyl-[1,2,4]triazolo[1,5-a]pyridin-2-amine], under setting [3], the IC50 is 1000 to 10000 nM.

For `OC1CCN(Cc2cccc3nc(Nc4ccc(C(F)(F)F)cc4)nn23)CC1` [Example 396, 1-((2-(4-(trifluoromethyl)phenylamino)-[1,2,4]triazolo[1,5-a]pyridin-5-yl)methyl)piperidin-4-ol], under setting [2], the IC50 fell in the range of 1000 to 10000 nM.

In the case of `c1ccc(Nc2nc3cccc(-c4ccccc4)n3n2)cc1` [Example 98], the IC50 under setting [1] lay within 500 to 1000 nM.
